Data from ChEMBL document CHEMBL1150370, “Pestaloficiols A-E, bioactive cyclopropane derivatives from the plant endophytic fungus Pestalotiopsis fici” (Bioorg Med Chem, 2008).
Where a name gives a salt, the structure may show the parent alone.

Experiments:
[1] = tested on: Human immunodeficiency virus 1; test: Antiviral activity against HIV1 in human C8116 cells assessed as reduction of p24 protein level after 4 days by ELISA; assay type: functional, organism-based; conditions: Human immunodeficiency virus 1, C8116, 96 h
[2] = Cytotoxicity against human C8116 cells after 4 days by MTT assay; assay type: cell-based

Structure (SMILES)	EC50 [1] [µM]	CC50 at 96 h [2] [µM]
CC(C)(C)NC(=O)[C@@H]1CN(Cc2cccnc2)CCN1C[C@@H](O)C[C@@H](Cc1ccccc1)C(=O)N[C@H]1c2ccccc2C[C@H]1O [INDINAVIR SULFATE]	0.00881	
CC1(C)CC(=O)C2=C(O1)[C@@]1(C[C@H]1C(C)(C)O)[C@@H](O)[C@@H](O)C2 [PESTALOFICIOL D]	26	> 200
CC1(C)CC(=O)C2=C(O1)[C@]1(C[C@@H]1C(C)(C)O)[C@@H](O)[C@@H](O)C2 [PESTALOFICIOL B]	26	> 200
CC1(C)CC(=O)C2=C(O1)[C@@]13C[C@@H]1C(C)(C)O[C@H]3[C@@H](O)C2 [PESTALOFICIOL A]	26	> 200
